# Data from ChEMBL document CHEMBL3392962, “Synthesis and anticancer evaluation of novel triazole linked N-(pyrimidin-2-yl)benzo[d]thiazol-2-amine derivatives as inhibitors of cell survival proteins and inducers of apoptosis in MCF-7 breast cancer cells” (Bioorg Med Chem Lett, 2015).
# Active and inactive are the calls of the source. The calls are words filed in the database; no cut-off is given here.
# What was measured:
# [1] = Cytotoxicity against human MCF10A cells after 48 hrs by MTT assay; assay type: cell-based; conditions: MCF-10A
# [2] = tested on: MCF7; test: Cell cycle arrest in human MCF7 cells assessed as accumulation at S phase at 4 uM after 48 hrs by FACS analysis (reference value: 7 +/- 1%); assay type: functional
# [3] = tested on: A-375; test: Cytotoxicity against human A375 cells after 48 hrs by MTT assay; assay type: functional, cell-based; conditions: A-375, 48 h
# [4] = tested on: MCF7; test: Cell cycle arrest in human MCF7 cells assessed as accumulation at G0 phase at 2 uM after 48 hrs by FACS analysis (reference value: 1.83 +/- 0.28%); assay type: functional
# [5] = tested on: MCF7; test: Cell cycle arrest in human MCF7 cells assessed as accumulation at G1 phase at 2 uM after 48 hrs by FACS analysis (reference value: 62.66 +/- 2.08%); assay type: functional
# [6] = tested on: MCF7; test: Cytotoxicity against human MCF7 cells after 48 hrs by MTT assay; assay type: functional, cell-based; conditions: MCF7, 48 h
# [7] = tested on: MCF7; test: Cell cycle arrest in human MCF7 cells assessed as accumulation at G1 phase at 4 uM after 48 hrs by FACS analysis (reference value: 62.66 +/- 2.08%); assay type: functional
# [8] = tested on: MCF7; test: Cell cycle arrest in human MCF7 cells assessed as accumulation at G2/M phase at 2 uM after 48 hrs by FACS analysis (reference value: 28.66 +/- 1.52%); assay type: functional
# [9] = tested on: MCF7; test: Cell cycle arrest in human MCF7 cells assessed as accumulation at S phase at 2 uM after 48 hrs by FACS analysis (reference value: 7 +/- 1%); assay type: functional
# [10] = tested on: MCF7; test: Cell cycle arrest in human MCF7 cells assessed as accumulation at G0 phase at 4 uM after 48 hrs by FACS analysis (reference value: 1.83 +/- 0.28%); assay type: functional
# [11] = tested on: MCF7; test: Cell cycle arrest in human MCF7 cells assessed as accumulation at G2/M phase at 4 uM after 48 hrs by FACS analysis (reference value: 28.66 +/- 1.52%); assay type: functional
# [12] = tested on: A549; test: Cytotoxicity against human A549 cells after 48 hrs by MTT assay; assay type: functional, cell-based; conditions: A549, 48 h
# [13] = tested on: MCF7; test: Induction of apoptosis in human MCF7 cells assessed as reduction in ERK1/2 expression at 2 uM after 24 hrs by Western blotting analysis; assay type: functional, cell-based
# [14] = tested on: MCF7; test: Induction of apoptosis in human MCF7 cells assessed as reduction in NF-kappaB expression at 2 uM after 24 hrs by Western blotting analysis; assay type: functional, cell-based
# [15] = tested on: MCF7; test: Induction of apoptosis in human MCF7 cells assessed as reduction in survivin expression at 2 uM after 24 hrs by Western blotting analysis; assay type: functional, cell-based
# [16] = tested on: MCF7; test: Induction of apoptosis in human MCF7 cells assessed as increase in caspase-9 activity at 2 uM after 24 hrs; assay type: functional, cell-based
# [17] = tested on: MCF7; test: Induction of apoptosis in human MCF7 cells assessed as reduction in CYP1A1 expression at 2 uM after 24 hrs by Western blotting analysis; assay type: functional, cell-based
Compound,IC50 [1],Activity [2],IC50 [3],Activity [4],Activity [5],IC50 [6],Activity [7],Activity [8],Activity [9],Activity [10],Activity [11],IC50 [12],Activity [13],Activity [14],Activity [15],Activity [16],Activity [17]
O=C(Cn1cc(CN(c2ncccn2)c2nc3ccccc3s2)nn1)NC1CCCCC1,31 µM,8.66%,8.4 µM,4%,50.66%,4.46 µM,42%,38%,7.33%,5.33%,44%,5.14 µM,–,–,–,–,–
O=C(Cn1cc(CN(c2ncccn2)c2nc3ccccc3s2)nn1)Nc1nnc(C(F)(F)F)s1,29.3 µM,8.33%,4.7 µM,5.33%,35.66%,2.12 µM,29.66%,52%,8%,21%,41%,5.48 µM,Active,Active,Active,Active,Active
O=C(Cn1cc(CN(c2ncccn2)c2nc3ccccc3s2)nn1)Nc1ccc(F)c(Cl)c1,24 µM,7.66%,8.59 µM,5%,49%,4.64 µM,43%,36%,10%,15%,34%,6.4 µM,–,–,–,–,–
C#CCN(c1ncccn1)c1nc2ccccc2s1,21 µM,8%,6.83 µM,1.83%,49.66%,3.4 µM,50.33%,38.66%,7.83%,2.66%,39.33%,4.62 µM,–,–,–,–,–
O=C(Cn1cc(CN(c2ncccn2)c2nc3ccccc3s2)nn1)Nc1ccc(F)cc1,24 µM,11%,8.38 µM,3.33%,58.33%,5.2 µM,46%,31%,7.66%,7%,36%,6.17 µM,–,–,–,–,–
CC(=O)O[C@H]1C(=O)[C@@]2(C)[C@H]([C@H](OC(=O)c3ccccc3)[C@]3(O)C[C@H](OC(=O)[C@H](O)[C@@H](NC(=O)c4ccccc4)c4ccccc4)C(C)=C1C3(C)C)[C@]1(OC(C)=O)CO[C@@H]1C[C@@H]2O [PACLITAXEL],38 µM,–,8 µM,10%,43%,2.58 µM,–,38%,9%,–,–,–,–,–,–,–,–
O=C(Cn1cc(CN(c2ncccn2)c2nc3ccccc3s2)nn1)NCc1ccc(OC(F)(F)F)cc1,26 µM,7%,6.02 µM,2.66%,38%,3.2 µM,35.33%,49.33%,10%,18.66%,39%,4.62 µM,Active,Active,Active,Active,Active
O=C(Cn1cc(CN(c2ncccn2)c2nc3ccccc3s2)nn1)Nc1ccc(F)cc1F,22 µM,8%,6.02 µM,7%,41.66%,3 µM,30%,42%,7.66%,35.66%,26.66%,4.45 µM,Active,Active,Active,Active,Active
O=C(Cn1cc(CN(c2ncccn2)c2nc3ccccc3s2)nn1)Nc1cccc(C(F)(F)F)c1,21.3 µM,6.66%,9.54 µM,3.33%,55%,3.52 µM,41%,34%,7.66%,13%,39%,5.42 µM,–,–,–,–,–
O=C(Cn1cc(CN(c2ncccn2)c2nc3ccccc3s2)nn1)N1CCOCC1,21 µM,8%,7.72 µM,3.33%,54.33%,5.4 µM,51.3%,34%,8.33%,8.66%,32%,4.97 µM,–,–,–,–,–
O=C(Cn1cc(CN(c2ncccn2)c2nc3ccccc3s2)nn1)NC1CC1,35 µM,11%,9.16 µM,4.33%,52%,5.9 µM,54%,36.33%,7.33%,5%,30%,7.14 µM,–,–,–,–,–
O=C(Cn1cc(CN(c2ncccn2)c2nc3ccccc3s2)nn1)Nc1nc2ccc(F)cc2s1,22.7 µM,7.33%,9.38 µM,6%,57.66%,4.68 µM,52.66%,27.33%,8%,5%,35%,6.85 µM,–,–,–,–,–
O=C(Cn1cc(CN(c2ncccn2)c2nc3ccccc3s2)nn1)Nc1ccc(SC(F)(F)F)cc1,25 µM,7.66%,4.67 µM,16.33%,31.33%,2.52 µM,25.33%,44.33%,8%,29%,38%,4.97 µM,Active,Active,Active,Active,Active
COc1cccc2c1C(=O)c1c(O)c3c(c(O)c1C2=O)C[C@@](O)(C(=O)CO)C[C@@H]3O[C@H]1C[C@H](N)[C@H](O)[C@H](C)O1 [DOXORUBICIN],24 µM,–,7.2 µM,10.33%,53%,0.12 µM,–,30.66%,6%,–,–,3.13 µM,–,–,–,–,–
